Laboratory results: PubChem BioAssay (NCI)
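These data come from cells grown in 96-well plates and exposed to compound for 48 hours at five concentrations. GI50 = concentration required for 50% inhibition of growth. Definition used: TGI = concentration required for complete inhibition of growth.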

Key:
Assay in all cases: NCI tumour cell line growth inhibition, 48 h
[1] = system: 786-0 renal
[2] = system: COLO 205 colon
[3] = system: HOP-92 NSCLC
[4] = system: LOX IMVI melanoma
[5] = system: OVCAR-3 ovarian
[6] = system: OVCAR-8 ovarian
[7] = system: RXF 393 renal
[8] = system: SF-539 CNS
[9] = system: SK-MEL-2 melanoma
[10] = system: T-47D breast

## C=C1C(=O)O[C@H]2[C@H]1CC/C(COC(=O)N[C@H]1C[C@H](O[C@H]3C[C@](O)(C(=O)CO)Cc4c(O)c5c(c(O)c43)C(=O)c3c(OC)cccc3C5=O)O[C@@H](C)[C@H]1O)=C\CC[C@@]1(C)O[C@@H]21
[1]
  GI50: 5.7 µM
  TGI: 16.5 µM
[2]
  GI50: 1.75 µM
  TGI: 6.98 µM
[3]
  GI50: 0.838 µM
  TGI: 2.28 µM
[4]
  GI50: 2.17 µM
  TGI: 8.25 µM
[5]
  GI50: 2.2 µM
  TGI: 7.8 µM
[6]
  GI50: 6.99 µM
  TGI: 18 µM
[7]
  GI50: 1.22 µM
  TGI: 3.85 µM
[8]
  GI50: 2.37 µM
  TGI: 8.43 µM
[9]
  GI50: 7.97 µM
  TGI: 17 µM
[10]
  GI50: 2.27 µM
  TGI: 10.4 µM

## COc1ccc2c(c1)C(=O)/C(=C/c1cccc(OCC(=O)Nc3nc(C)c(C)s3)c1)O2
[1]
  GI50: 0.0238 µM
  TGI: 0.0545 µM
[2]
  GI50: 0.752 µM
  TGI: 2.48 µM
[3]
  GI50: 0.0186 µM
  TGI: 0.0562 µM
[4]
  GI50: < 0.0127 µM
  TGI: < 0.0178 µM
[5]
  GI50: 0.0179 µM
  TGI: 0.0366 µM
[6]
  GI50: 0.647 µM
  TGI: 12.9 µM
[7]
  GI50: 0.0214 µM
  TGI: 0.0418 µM
[8]
  GI50: 0.052 µM
  TGI: 0.0965 µM
[9]
  GI50: 0.0199 µM
  TGI: 0.047 µM
[10]
  GI50: 1.99 µM
  TGI: 4.65 µM

## CCn1cc(/C=C2\Oc3cc(OCC#N)ccc3C2=O)c2cc(OC)ccc21
[1]
  GI50: 0.167 µM
  TGI: > 40.9 µM
[2]
  GI50: 0.348 µM
  TGI: 4.12 µM
[3]
  GI50: 11.2 µM
  TGI: 68.6 µM
[4]
  GI50: 0.238 µM
  TGI: > 100 µM
[5]
  GI50: 0.127 µM
  TGI: 4.94 µM
[6]
  GI50: 0.53 µM
  TGI: > 100 µM
[7]
  GI50: 0.152 µM
  TGI: 0.614 µM
[8]
  GI50: 0.113 µM
  TGI: 0.818 µM
[9]
  GI50: 0.807 µM
  TGI: > 68.5 µM
[10]
  GI50: 0.961 µM
  TGI: > 100 µM

## COc1ccc(-c2nc(-c3nc4cc(Cl)c(F)cc4[nH]3)c3ccccn23)cc1
[1]
  GI50: 8.94 µM
  TGI: > 100 µM
[2]
  GI50: 7.1 µM
  TGI: > 100 µM
[3]
  GI50: 3.24 µM
  TGI: > 100 µM
[4]
  GI50: 5.36 µM
  TGI: > 100 µM
[5]
  GI50: 8.75 µM
  TGI: > 100 µM
[6]
  GI50: 3.45 µM
  TGI: > 100 µM
[7]
  GI50: 4.65 µM
  TGI: > 100 µM
[8]
  GI50: 39.8 µM
  TGI: > 100 µM
[9]
  GI50: 6.86 µM
  TGI: 80 µM
[10]
  GI50: 3.54 µM
  TGI: 33.1 µM

## O=C(c1ccc2ccccc2c1)c1nc2cc(F)ccc2[n+]([O-])c1C(F)(F)F
[1]
  GI50: 31.6 µM
  TGI: > 100 µM
[2]
  GI50: 15.9 µM
  TGI: 38.1 µM
[3]
  GI50: 19.5 µM
  TGI: 36.5 µM
[4]
  GI50: 13.8 µM
  TGI: 26.9 µM
[5]
  GI50: 16.3 µM
  TGI: 29.9 µM
[6]
  GI50: 16.7 µM
  TGI: 32.4 µM
[7]
  GI50: 14.6 µM
  TGI: 30.8 µM
[8]
  GI50: 22 µM
  TGI: 48.9 µM
[9]
  GI50: 18.7 µM
  TGI: 35.8 µM
[10]
  GI50: 27.6 µM
  TGI: > 100 µM

## CCOC(=O)c1ccc(NC(=O)NC2=NCCS2)cc1
[1]
  GI50: 0.693 µM
  TGI: > 100 µM
[2]
  GI50: 40.8 µM
  TGI: > 100 µM
[3]
  GI50: 0.418 µM
  TGI: > 100 µM
[4]
  GI50: 39.9 µM
  TGI: > 100 µM
[5]
  GI50: 0.289 µM
  TGI: 0.897 µM
[6]
  GI50: 1.98 µM
  TGI: > 100 µM
[7]
  GI50: 0.429 µM
  TGI: 3.3 µM
[8]
  GI50: 0.381 µM
  TGI: 2.27 µM
[9]
  GI50: 24.6 µM
  TGI: 97.9 µM
[10]
  GI50: 4.13 µM
  TGI: > 100 µM
